Laboratory results from US12390435B2, “Electrophiles and electrophile pro-drugs as RAD51 inhibitors” (University of Pittsburgh—Of the Commonwealth System of …, priority 2018, dated 2025).
Like-named read-outs stand apart in the source and are kept apart here.

Assays:
MCF-10A cells = experiment: Cell growth assay (FluoReporter dsDNA); type: cell-based; conditions: for IC50: Homo sapiens, MCF-10A
Description: (§1) Cells were plated at a cell density of 5000 cells per well in 96-well plates. […] Cells were counted using the FluoReporter dsDNA quantitation kit (Molecular Probes) according to the manufacturer's instructions. Fluorescence was measured using a SpectraMax M2 plate reader (Molecular Devices). […] Three individual experiments were done (n=5/each), and statistical comparison between two cell lines across doses was determined by two-way analysis of variance followed by Tukey post-test.

MCF7 cells = experiment: Cell growth assay (FluoReporter dsDNA); type: cell-based; conditions: Homo sapiens, 48 hr, 0-15 μM
Description: as §1

MDA-MB-231 cells = experiment: Cell growth assay (FluoReporter dsDNA); type: cell-based; conditions: Homo sapiens, MDA-MB-231; 48 hr, 0-15 μM
Description: as §1

MDA-MB-468 cells = experiment: Cell growth assay (FluoReporter dsDNA); type: cell-based; conditions: Homo sapiens, 48 hr, 0-15 μM
Description: as §1

[1] = test system: MDA-MB-231 orthotopic tumor; experiment: Orthotopic MDA-MB-231 tumor model, 15 mg/kg gavage; type: in vivo, mice
Description: Animals used for this study were approved by and conducted according to the guidelines of the University of Pittsburgh IACUC. MDA-MB-231 cells (0.5×106) were injected into the mammary fat pad (left 4th gland) of 6-wk-old female nude mice in a volume of 20 μL sterile saline. When tumors reached an average volume of 100 mm^3, mice were treated with OA+vehicle (n=8), OA-NO2+vehicle (n=7), OA+talazoparib (0.3 mg/kg) (n=10) or OA-NO2 (15 mg/kg)+talazoparib (n=11). Tumor volume was measured by caliper over time in P-values: *<0.01, ***<0.001, ****<0.0001. The surgical procedure has been previously described.
Whether NO2-OA could also enhance TNBC DNA damage in vivo was also assessed. […] (FIG. 1B). […] This response became statistically significant after Grubbs outlier detection and elimination of OA treated mouse #2. The orthotopic tumor in OA mouse #2 was the largest tumor in the study, with necrosis potentially causing enhanced γH2AX levels.

breast cancer cell = experiment: Clonogenic assay after 2 Gy IR; type: cell-based; conditions: increasing concentrations
RAD51 = molecular target: T1, RAD51 (Homo sapiens, UniProt Q06609); experiment: RAD51 ssDNA binding, fluorescence polarization; type: biochemical; conditions: 5 or 10 μM, ATP and Alexa Fluor 488 DNA
T1 construct: purchased Abcam
Description: Reactions were performed in black 96-well plates (Greiner) in 50 μL reaction volumes in 20 mM HEPES pH 7.5, 10 mM MgCl2, 0.25 μM BSA, 2% glycerol, 30 mM NaCl and 4% DMSO. […] 2 mM ATP and 100 nM 5′-Alexa Fluor 488 ssDNA poly-dT (Integrated DNA technologies) were added to the reaction and incubated for 90 min at 37° C. DNA binding was measured using fluorescence polarization (FP) on a Tecan Spark 20M (ex/em 480 nm/535 nm). Compound fluorescence quenching was detected as above in the absence of RAD51 protein.

TNBC cells = experiment: Cellular H2O2 production; type: cell-based; conditions: short term and extended (6 hr) treatment
NF-κB target genes = experiment: qPCR / RT2 profiler array of NF-κB target genes; type: cell-based, human; conditions: 5 μM
Description: Total RNA samples of tissues or cells were extracted using TRIZOL reagents according to the manufacturer's instructions (Invitrogen). Total RNA (1 μg) was reverse transcribed using the iScript cDNA kit (Bio-Rad) according to manufacturer instructions. cDNA (25 ng) was used for each subsequent quantitative real-time PCR (qRT-PCR) reaction. All qRT-PCR was performed on the StepOne PLUS PCR system (Thermo Fisher Scientific) using TaqMan gene expression assays. Fold change was calculated using the ΔΔCt method with 18S ribosomal RNA or human β-actin RNA serving as the internal control. Three individual experiments were done, and statistical significance was determined by one-way analysis of variance followed by Tukey post-test. […] The expression of 84 human NF-κB target genes was analyzed with 96-well plate format as instructed in the manufacturer's handbook (Qiagen). PCR amplification was conducted by StepOne PLUS PCR system and fold change of gene expression was calculated according to the manufacturer's instruction.

IKKβ = experiment: TNFα-induced IKKβ phosphorylation, IκBα phosphorylation and degradation; type: cell-based
Description: All studies used two TNBC cell lines, MDA-MB-231 and MDA-MB-468. […] For IκBα degradation, cells were treated as described above and stimulated with 20 ng/mL TNFα for 10 min.
(§2) Western blotting was performed. 20-60 μg of total lysates per lane were loaded on 7%, 10%, or 12% SDS-PAGE and transferred onto nitrocellulose or polyvinylidene difluoride membranes (Bio-Rad). The membranes were probed with primary antibodies against caspase-3, multi-drug resistance protein-1 (MRP1), poly [ADP ribose] polymerase-1 (PARP-1), ubiquitin, RelA; cyclin D1, p21, caspase-9, MRP4, IKKβ, pIKKβ, IκBα, or pIκBα (Cell Signaling); caspase-8 (R&D Systems). Samples were normalized to β-actin (Sigma-Aldrich) or GAPDH (Trevigen).

[2] = test system: RelA in MDA-MB-231 and MDA-MB-468 cells; experiment: RelA protein level and polyubiquitination; type: cell-based
Description: Lysates were clarified by centrifugation at 14,000×g for 10 min. Protein lysates (1 mg) were incubated with anti-RelA antibody and Protein G/A conjugated agarose beads (EMD Millipore, Bedford, MA) at 4° C., overnight. Immunoprecipitation fraction were obtained by centrifugation at 14,000×g for 1 min at RT and washed with lysis buffer three times. The immunoprecipitated RelA was resolved by 8% SDSPAGE gel, and transferred to nitrocellulose membrane (Bio-Rad) for immunoblotting probed with an anti-ubiquitin antibody (Santa Cruz Biotechnology). The blot was then stripped and probed with an anti-RelA antibody to assess amounts of RelA protein pull-down.
as §2

RelA in MCF-10A cells = experiment: RelA protein level; type: cell-based; conditions: 5 μM, 24 hr
Description: as §2

T1 sequence (Q06609 whole entry): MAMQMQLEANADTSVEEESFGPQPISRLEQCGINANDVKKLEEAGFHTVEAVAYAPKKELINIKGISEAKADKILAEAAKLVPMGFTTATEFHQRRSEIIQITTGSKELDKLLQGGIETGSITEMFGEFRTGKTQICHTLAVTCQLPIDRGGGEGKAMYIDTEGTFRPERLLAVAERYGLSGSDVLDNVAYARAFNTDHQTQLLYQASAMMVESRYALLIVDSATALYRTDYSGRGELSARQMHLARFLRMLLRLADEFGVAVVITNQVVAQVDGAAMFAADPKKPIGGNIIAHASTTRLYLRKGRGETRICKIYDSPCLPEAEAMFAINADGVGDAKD

CCCCCCCCC(=CCCCCCCCC(=O)O)[N+](=O)[O-] [NO2-OA, 10-nitro-octadec-9-enoic acid]
IC50 (MCF-10A cells; read-out: IC50 cell growth, only NO2-OA treatment, probenecid study, no probenecid, 0-25 μM 48 hr): 14.2 ± 1.05 µM
IC50 (MCF-10A cells; 48 hr, 0-15 μM, read-out: IC50 cell growth): 7.7 ± 1.93 µM
decrease of IC50 by probenecid (MCF-10A cells; probenecid pretreated versus only NO2-OA): 2 fold
IC50 (MCF7 cells): 11.6 ± 3.59 µM
IC50 (MDA-MB-231 cells): 2.7 ± 0.11 µM
IC50 (MDA-MB-468 cells): 1.6 ± 0.11 µM
tumor γH2AX level by immunoblot ([1]; 15 mg/kg by gavage for 4 wk, versus OA): higher levels of γH2AX
tumor growth rate ([1]; 15 mg/kg by gavage for 4 wk, versus OA treated controls): significantly decreased tumor growth rates
tumor reduction / tumor volume in combination with talazoparib ([1]; NO2-OA 15 mg/kg + talazoparib 0.3 mg/kg versus either alone): significant greater tumor reduction compared to talazoparib or NO2-OA alone
cell death in clonogenic assay (breast cancer cell): enhanced breast cancer cell death
relative fluorescence polarization of RAD51 with ssDNA (RAD51): decreased the relative polarization of RAD51
cellular rates of H2O2 production (TNBC cells): did not significantly impact cellular rates of H2O2 production
TNFα-induced expression of ICAM-1 and uPA genes (NF-κB target genes; MDA-MB-231 or MDA-MB-468 cells, TNFα 20 ng/mL): suppression of TNFα-induced expression of ICAM-1 and uPA genes
mRNA expression of NF-κB target genes (PCR array) (NF-κB target genes; MDA-MB-468 cells, 24 hr): decreased the mRNA expression of multiple NF-κB target genes
TNFα-induced IKKβ phosphorylation (IKKβ; NO2-OA 5 μM or BAY11-7082 10 μM 2 hr, TNFα 20 ng/mL 5 min): diminished
degradation of IκBα following TNFα stimulation (IKKβ; TNFα 20 ng/mL, 10 min): inhibited the degradation of IκBβ
IκBα phosphorylation (IKKβ; with proteasome inhibitor MG-132 10 μM): decreased IκBβ phosphorylation
polyubiquitination of RelA ([2]; 5 μM, 5 hr): promoted polyubiquitination of RelA
RelA protein abundance ([2]; 5 μM, 24 hr): decreased the abundance of RelA
RelA mRNA levels ([2]; all three cell lines (MDA-MB-231, MDA-MB-468, MCF-10A)): not altered
RelA protein levels (RelA in MCF-10A cells): not altered
